By IC50 is commonly meant the concentration at which inhibition is half-maximal. A high value points to weaker potency in that assay. As a reminder, the Ki is the equilibrium dissociation constant of an inhibitor or competing ligand from its target. Lower therefore signals a stronger hold on the target.

The values below come from ChEMBL document CHEMBL1145125, “Simple, intuitive calculations of free energy of binding for protein-ligand complexes. 2. Computational titration and pH effects in molecular models of neuraminidase-inhibitor complexes” (J Med Chem, 2003).

The nature of this test: In vitro inhibitory activity against neuraminidase. Also noted: species or system unidentified influenza virus.
With `CCCN(CCc1ccccc1)C(=O)[C@@H]1OC(C(=O)O)=C[C@H](N)[C@H]1NC(C)=O`, the IC50 was determined as 3.6 µM.

`CC(=O)N[C@H]1[C@H]([C@H](O)[C@H](O)CN)OC(C(=O)O)=C[C@@H]1N` showed an inhibitory constant (Ki) of 15 µM.

The molecule `CC(=O)Nc1c(N)cc(C(=O)O)cc1O` displayed an IC50 above 10 µM.

The molecule `CC(=O)Nc1ccc(C(=O)O)cc1N` registered an IC50 above 10 µM.

In the case of `CC(=O)Nc1c(O)cc(C(=O)O)cc1[N+](=O)[O-]`, the midpoint of inhibition, the IC50, lay at 750 µM.

In turn, `CC(=O)N[C@H]1[C@H]([C@H](O)[C@H](O)CO)OC(C(=O)O)=C[C@@H]1N` displayed a Ki of 0.04 µM.

`CC(=O)N[C@H]1[C@H]([C@H](O)[C@H](O)CO)OC(C(=O)O)=C[C@@H]1O` [NEU5AC2EN] had a Ki of 4 µM.

Turning to `CC(=O)N[C@H]1[C@H]([C@H](O)[C@H](O)CN)OC(C(=O)O)=C[C@@H]1O`, the inhibition constant (Ki) stood at 400 µM.
